# Data published in PubChem BioAssay (NCI).
#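 48-hour exposure; five concentrations; linearly interpolated endpoints. GI50: concentration for 50% inhibition of growth. TGI: total growth inhibition.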
# Experiments:
# Assay in all cases: growth of human tumour cells (NCI), 48 h
# 786-0 renal = test system: 786-0 renal
# A498 renal = test system: A498 renal
# A549 NSCLC = test system: A549 NSCLC
# ACHN renal = test system: ACHN renal
# BT-549 breast = test system: BT-549 breast
# CAKI-1 renal = test system: CAKI-1 renal
# CCRF-CEM leukemia = test system: CCRF-CEM leukemia
# COLO 205 colon = test system: COLO 205 colon
# DU-145 prostate = test system: DU-145 prostate
# HCC-2998 colon = test system: HCC-2998 colon
# HCT-116 colon = test system: HCT-116 colon
# HCT-15 colon = test system: HCT-15 colon
# HL-60(TB) leukemia = test system: HL-60(TB) leukemia
# HOP-62 NSCLC = test system: HOP-62 NSCLC
# HOP-92 NSCLC = test system: HOP-92 NSCLC
# HS 578T breast = test system: HS 578T breast
# HT29 colon = test system: HT29 colon
# IGROV1 ovarian = test system: IGROV1 ovarian
# K-562 leukemia = test system: K-562 leukemia
# KM12 colon = test system: KM12 colon
# LOX IMVI melanoma = test system: LOX IMVI melanoma
# M14 melanoma = test system: M14 melanoma
# MALME-3M melanoma = test system: MALME-3M melanoma
# MCF7 breast = test system: MCF7 breast
# MDA-MB-231 breast = test system: MDA-MB-231 breast
# MDA-MB-435 = test system: MDA-MB-435
# MOLT-4 leukemia = test system: MOLT-4 leukemia
# NCI-H226 lung = test system: NCI-H226 lung
# NCI-H23 lung = test system: NCI-H23 lung
# NCI-H460 lung = test system: NCI-H460 lung
# NCI-H522 lung = test system: NCI-H522 lung
# NCI/ADR-RES ovarian = test system: NCI/ADR-RES ovarian
# OVCAR-3 ovarian = test system: OVCAR-3 ovarian
# OVCAR-4 ovarian = test system: OVCAR-4 ovarian
# OVCAR-5 ovarian = test system: OVCAR-5 ovarian
# OVCAR-8 ovarian = test system: OVCAR-8 ovarian
# PC-3 prostate = test system: PC-3 prostate
# RPMI-8226 leukemia = test system: RPMI-8226 leukemia
# RXF 393 renal = test system: RXF 393 renal
# SF-268 CNS = test system: SF-268 CNS
# SF-539 CNS = test system: SF-539 CNS
# SK-MEL-2 melanoma = test system: SK-MEL-2 melanoma
# SK-MEL-28 melanoma = test system: SK-MEL-28 melanoma
# SK-MEL-5 melanoma = test system: SK-MEL-5 melanoma
# SK-OV-3 ovarian = test system: SK-OV-3 ovarian
# SN12C renal = test system: SN12C renal
# SNB-19 CNS = test system: SNB-19 CNS
# SNB-75 CNS = test system: SNB-75 CNS
# SW-620 colon = test system: SW-620 colon
# T-47D breast = test system: T-47D breast
# TK-10 renal = test system: TK-10 renal
# U251 CNS = test system: U251 CNS
# UACC-257 melanoma = test system: UACC-257 melanoma
# UACC-62 melanoma = test system: UACC-62 melanoma
# UO-31 renal = test system: UO-31 renal
structure (smiles),measurement,setting,value
Cc1ccc(C2=NN(c3ccc(S(=O)(=O)NC(=O)NCc4ccccc4)cc3)C(c3ccc(N(C)C)cc3)C2)c(C)c1 (stereo not given),GI50,786-0 renal,4.37 µM
same,TGI,786-0 renal,36.1 µM
same,GI50,A498 renal,3.08 µM
same,TGI,A498 renal,12.5 µM
same,GI50,A549 NSCLC,3.46 µM
same,TGI,A549 NSCLC,16.4 µM
same,GI50,ACHN renal,3.97 µM
same,TGI,ACHN renal,> 100 µM
same,GI50,BT-549 breast,3.94 µM
same,TGI,BT-549 breast,19.9 µM
same,GI50,CAKI-1 renal,3.45 µM
same,TGI,CAKI-1 renal,87.1 µM
same,GI50,CCRF-CEM leukemia,3.2 µM
same,TGI,CCRF-CEM leukemia,89 µM
same,GI50,COLO 205 colon,3.71 µM
same,TGI,COLO 205 colon,10.4 µM
same,GI50,DU-145 prostate,4.6 µM
same,TGI,DU-145 prostate,16.6 µM
same,GI50,HCC-2998 colon,2450 nM
same,TGI,HCC-2998 colon,5.65 µM
same,GI50,HCT-116 colon,4 µM
same,TGI,HCT-116 colon,14.9 µM
same,GI50,HCT-15 colon,3.27 µM
same,TGI,HCT-15 colon,> 100 µM
same,GI50,HL-60(TB) leukemia,3.02 µM
same,TGI,HL-60(TB) leukemia,11.9 µM
same,GI50,HOP-62 NSCLC,5.69 µM
same,TGI,HOP-62 NSCLC,28 µM
same,GI50,HOP-92 NSCLC,2640 nM
same,TGI,HOP-92 NSCLC,8.58 µM
same,GI50,HS 578T breast,2480 nM
same,TGI,HS 578T breast,7.02 µM
same,GI50,HT29 colon,4.53 µM
same,TGI,HT29 colon,19.1 µM
same,GI50,IGROV1 ovarian,4.31 µM
same,TGI,IGROV1 ovarian,13.6 µM
same,GI50,K-562 leukemia,3.51 µM
same,TGI,K-562 leukemia,> 100 µM
same,GI50,KM12 colon,3.49 µM
same,TGI,KM12 colon,15.4 µM
same,GI50,LOX IMVI melanoma,4.08 µM
same,TGI,LOX IMVI melanoma,14.1 µM
same,GI50,M14 melanoma,3.57 µM
same,TGI,M14 melanoma,23.4 µM
same,GI50,MALME-3M melanoma,2900 nM
same,TGI,MALME-3M melanoma,9.14 µM
same,GI50,MCF7 breast,2990 nM
same,TGI,MCF7 breast,31.2 µM
same,GI50,MDA-MB-231 breast,4.16 µM
same,TGI,MDA-MB-231 breast,22.4 µM
same,GI50,MDA-MB-435,2510 nM
same,TGI,MDA-MB-435,7.08 µM
same,GI50,MOLT-4 leukemia,3.65 µM
same,TGI,MOLT-4 leukemia,73.8 µM
same,GI50,NCI-H226 lung,3.91 µM
same,TGI,NCI-H226 lung,15.9 µM
same,GI50,NCI-H23 lung,3.6 µM
same,TGI,NCI-H23 lung,17.8 µM
same,GI50,NCI-H460 lung,3.33 µM
same,TGI,NCI-H460 lung,10.4 µM
same,GI50,NCI-H522 lung,4.48 µM
same,TGI,NCI-H522 lung,28.7 µM
same,GI50,NCI/ADR-RES ovarian,3.93 µM
same,TGI,NCI/ADR-RES ovarian,25.1 µM
same,GI50,OVCAR-3 ovarian,2240 nM
same,TGI,OVCAR-3 ovarian,4.95 µM
same,GI50,OVCAR-4 ovarian,3.54 µM
same,TGI,OVCAR-4 ovarian,> 100 µM
same,GI50,OVCAR-5 ovarian,5.4 µM
same,TGI,OVCAR-5 ovarian,29.3 µM
same,GI50,OVCAR-8 ovarian,3.81 µM
same,TGI,OVCAR-8 ovarian,> 100 µM
same,GI50,PC-3 prostate,3.33 µM
same,TGI,PC-3 prostate,42 µM
same,GI50,RPMI-8226 leukemia,2880 nM
same,TGI,RPMI-8226 leukemia,10.6 µM
same,GI50,RXF 393 renal,3 µM
same,TGI,RXF 393 renal,9.8 µM
same,GI50,SF-268 CNS,4.37 µM
same,TGI,SF-268 CNS,45.1 µM
same,GI50,SF-539 CNS,2430 nM
same,TGI,SF-539 CNS,6.02 µM
same,GI50,SK-MEL-2 melanoma,3.32 µM
same,TGI,SK-MEL-2 melanoma,8.85 µM
same,GI50,SK-MEL-28 melanoma,2360 nM
same,TGI,SK-MEL-28 melanoma,6.89 µM
same,GI50,SK-MEL-5 melanoma,2320 nM
same,TGI,SK-MEL-5 melanoma,5.62 µM
same,GI50,SK-OV-3 ovarian,8.43 µM
same,TGI,SK-OV-3 ovarian,> 100 µM
same,GI50,SN12C renal,3.35 µM
same,TGI,SN12C renal,61.5 µM
same,GI50,SNB-19 CNS,4.6 µM
same,TGI,SNB-19 CNS,> 100 µM
same,GI50,SNB-75 CNS,2440 nM
same,TGI,SNB-75 CNS,> 100 µM
same,GI50,SW-620 colon,3.94 µM
same,TGI,SW-620 colon,23.7 µM
same,GI50,T-47D breast,6.74 µM
same,TGI,T-47D breast,> 100 µM
same,GI50,TK-10 renal,6.46 µM
same,TGI,TK-10 renal,35.9 µM
same,GI50,U251 CNS,3.53 µM
same,TGI,U251 CNS,16 µM
same,GI50,UACC-257 melanoma,4.64 µM
same,TGI,UACC-257 melanoma,> 100 µM
same,GI50,UACC-62 melanoma,2500 nM
same,TGI,UACC-62 melanoma,6.8 µM
same,GI50,UO-31 renal,4.27 µM
same,TGI,UO-31 renal,15.7 µM
